In patent publication EP0428103A2, “Prevention of glycoprotein enveloped virus infectivity by pyridyloxazole-2-ones” (MERRELL DOW PHARMACEUTICALS INC., priority 1989, dated 1991):
Counter-ions that a name gives are not always drawn.

What was measured:
HIV = conditions: CD4+ cells, Fields, et al., Nature, Vol. 333, 19 May 1988, cited from earlier work
[1] = test system: Moloney murine leukemia virus (MoLV); test: in vitro XC plaque assay; format: cell-based; conditions: mouse SC-1 cells; for Mean No. of Foci: control 84 foci
Procedure: This assay was performed according to the method of Rowe et al. (Virology, 1970, 42, 1136-39) as previously described by L. Hsu, et al. (J. Virological Methods, 1980, 1, 167-77) and T. L. Bowlin and M. R. Proffitt (J. Interferon Res., 1983, 3(1), 19-31). Mouse SC-1 cells (fibroblast) (10⁵) were seeded into each well of 6-well cluster plates (Costar #3506) in 4 ml Minimum Essential Medium (MEM) with 10% Fetal Calf Serum (FCS). Following an 18 hour incubation period (37°C), Moloney murine leukemia virus (MoLV) was applied at a predetermined titer to give optimal (i.e. countable) numbers of virus plaques. Compounds were added 2 hours prior to addition of the virus. Three days later the culture medium was removed, the SC-1 cell monolayers were exposed to UV irradiation (1800 ergs), and rat XC cells (10⁶) were seeded into each well in 4 ml MEM. Following an additional 3 day incubation (37°C), these cells were fixed with ethyl alcohol (95%) and stained with 0.3% crystal violet. Plaques were then counted under low magnification.

RF strain of HIV-1 = test: p24 antigen expression from HIV infected T-lymphocytes; format: cell-based; conditions: C8166 T cell line; for p24 Antigen: culture fluid after 3 days
Procedure: Cells (C8166 T cell line) were pretreated with test compounds at appropriate concentrations for 3 hours prior to virus (RF strain of HIV-1) absorption. Low multiplicity of infection was used and virus absorption period was 1 hour at room temperature. the cells were washed X1 in PBS and resuspended in fresh medium containing the appropriate concentrations of test compound. Cells incubated at 37°C and after 3 days culture fluid was assayed for p24 antigen as a measure of viral replication. Because these compounds were tested as the free base, they had to be taken up in DMSO and therefore a series of DMSO virus controls were needed for comparison.

Row | Compound | HIV cell surface binding (HIV) | viral infectivity (HIV; accumulation of virus particles at the cell surface) | Mean No. of Foci ([1]; 0.10 µg/ml) | Mean No. of Foci ([1]; 0.25 µg/ml) | Mean No. of Foci ([1]; 0.5 µg/ml) | Mean No. of Foci ([1]; 0.75 µg/ml) | Mean No. of Foci ([1]; 1 µg/ml, compound added 2 hours prior to virus) | inhibition at 0.1 µg/mL ([1]; Murine leukemia virus, SC1, 0.10 µg/ml) [%] | inhibition at 0.25 µg/mL ([1]; Murine leukemia virus, SC1, 0.25 µg/ml) [%] | inhibition at 0.5 µg/mL ([1]; Murine leukemia virus, SC1, 0.5 µg/ml) [%] | inhibition at 0.75 µg/mL ([1]; Murine leukemia virus, SC1, 0.75 µg/ml) [%] | inhibition at 1 µg/mL ([1]; Murine leukemia virus, SC1, 1 µg/ml, compound added 2 hours prior to virus) [%] | p24 Antigen (RF strain of HIV-1; 1 µg/ml, DMSO 0.01 %, vehicle control 1027 pg/ml) [pg/mL] | p24 Antigen (RF strain of HIV-1; 10 µg/ml, DMSO 0.1 %, vehicle control 2408 pg/ml) [pg/mL] | inhibition at 1 µg/mL (RF strain of HIV-1; Human immunodeficiency virus 1, 72 h, 1 µg/ml, DMSO 0.01 %, 3 days) [%] | inhibition at 10 µg/mL (RF strain of HIV-1; Human immunodeficiency virus 1, 72 h, 10 µg/ml, DMSO 0.1 %, 3 days) [%]
1 | CC1CNCCN1S(=O)(=O)c1cccc2cnccc12 (stereo not shown) [1,5-isoquinolinesulphonyl-2-methylpiperazine dihydrochloride] | does not interfere | inhibition of viral infectivity |  |  |  |  |  |  |  |  |  |  |  |  |  | 
2 | CCCc1[nH]c(=O)oc1-c1ccncc1 [Test Compound, 4-propyl-5-(4-pyridinyl)-2(3H)-oxazolone] |  |  | 85 | 67 | 68 | 63 | 33 | 0 | 20 | 19 | 25 | 60.7 | 613 | 244 | 41 | 90
